The structures appear in SMILES notation. Active and inactive are the calls of the source.

In ChEMBL document CHEMBL1201862, “PubChem BioAssay data set” (2004) one finds IC50, AC50 and EC50 data, which are given here for 17 molecules.

Experiment [1] concerns the target Induced myeloid leukemia cell differentiation protein Mcl-1 (Homo sapiens, UniProt Q07820). It is filed as functional.
Experiment [2] concerns the target T1, Fatty acid synthase (Homo sapiens, UniProt P49327). Kind of experiment: inhibition of human FAS-TE enzyme activity – biochemical, kinetic fluorescence intensity, dose response (AID 624326).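 Also: rate of fluorescence rise from hydrolysis of a fluorogenic O-methyl fluorescein ester substrate.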 It counts as functional.
For experiment [3], the target named is T1, Fatty acid synthase. Kind of experiment: inhibition of human FAS-TE enzyme activity – biochemical, endpoint fluorescence intensity, uHTS hits, dose response (AID 624327).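 Also: fluorescence from hydrolysis of an O-methyl fluorescein acyl ester substrate by the enzyme.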 It counts as functional.
Another experiment has as its target T2, Protein skinhead-1 (Caenorhabditis elegans, UniProt P34707).
T2 sequence (P34707 whole entry): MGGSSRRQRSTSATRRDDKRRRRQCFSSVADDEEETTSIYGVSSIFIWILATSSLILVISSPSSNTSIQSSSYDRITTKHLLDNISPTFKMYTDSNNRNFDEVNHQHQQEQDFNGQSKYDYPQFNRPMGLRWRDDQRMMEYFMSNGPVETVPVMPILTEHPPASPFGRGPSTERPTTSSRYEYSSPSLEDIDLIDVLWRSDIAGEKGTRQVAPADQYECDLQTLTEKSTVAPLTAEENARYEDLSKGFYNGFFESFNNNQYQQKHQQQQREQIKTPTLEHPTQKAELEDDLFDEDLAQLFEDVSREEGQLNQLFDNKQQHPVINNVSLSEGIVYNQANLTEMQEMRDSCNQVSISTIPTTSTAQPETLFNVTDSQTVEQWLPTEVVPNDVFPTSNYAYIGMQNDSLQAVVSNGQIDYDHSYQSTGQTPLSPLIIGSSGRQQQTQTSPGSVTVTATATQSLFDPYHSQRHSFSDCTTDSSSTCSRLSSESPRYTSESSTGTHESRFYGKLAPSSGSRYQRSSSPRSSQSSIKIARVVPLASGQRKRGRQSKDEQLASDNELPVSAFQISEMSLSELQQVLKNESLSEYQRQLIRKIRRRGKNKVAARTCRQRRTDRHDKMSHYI
It counts as functional.

Another experiment has as its target Cytochrome P450 2C9 (Homo sapiens, UniProt P11712).
Another experiment deals with Cytochrome P450 3A4 (Homo sapiens, UniProt P08684).
Chain of Cytochrome P450 3A4 (P08684 whole entry): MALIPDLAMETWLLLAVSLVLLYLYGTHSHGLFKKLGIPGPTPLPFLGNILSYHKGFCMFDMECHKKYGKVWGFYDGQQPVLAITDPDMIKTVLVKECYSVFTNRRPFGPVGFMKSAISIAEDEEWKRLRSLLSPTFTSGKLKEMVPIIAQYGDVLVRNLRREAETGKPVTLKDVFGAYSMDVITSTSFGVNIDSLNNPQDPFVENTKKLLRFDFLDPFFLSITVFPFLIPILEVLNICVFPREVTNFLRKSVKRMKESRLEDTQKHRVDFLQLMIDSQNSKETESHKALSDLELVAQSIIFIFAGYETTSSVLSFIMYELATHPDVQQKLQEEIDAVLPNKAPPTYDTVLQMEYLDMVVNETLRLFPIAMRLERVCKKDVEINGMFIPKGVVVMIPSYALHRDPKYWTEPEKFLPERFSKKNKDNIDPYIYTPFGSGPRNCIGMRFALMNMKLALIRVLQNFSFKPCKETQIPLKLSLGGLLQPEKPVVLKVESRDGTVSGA
Experiment [4] can be described thus: intracellular Trypanosoma cruzi inhibitors in host cells – cell-based, plate reader, cherry-pick samples, set 3, dose response (AID 651818).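 Also: compounds incubated with infected cells for about four days.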 It is filed as functional.
Experiment [5] can be described thus: HEK-293T viability loss after treatment – luminescence, T-cell screen hits, cytotoxicity control for TCR NF-kB inhibitor project, dose response (AID 489026).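 Also: cells exposed to compound about 14 hours before the viability readout.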 It counts as functional, cell-based.
Experiment [6] can be described thus: DRD fibroblast viability loss – cell-based, non-viral oncogenic, luminescence, dose response (AID 1934). It counts as functional. The note with it: Homo sapiens.
Experiment [7] has as its system BJ. Kind of experiment: BJ-TERT-LT-ST fibroblast viability loss – cell-based, RAS-independent, luminescence, dose response (AID 1935).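 Also: BJ fibroblasts immortalized with TERT plus LT and ST oncogenes.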 It is filed as functional. The note with it: Homo sapiens.
Experiment [8] relates to BJ. Kind of experiment: cells. It counts as functional, cell-based. Particulars: Homo sapiens.
The target of experiment [9] is T3, RNA-binding protein pos-1 (Caenorhabditis elegans, UniProt G5EF15).
T3 sequence (G5EF15 whole entry): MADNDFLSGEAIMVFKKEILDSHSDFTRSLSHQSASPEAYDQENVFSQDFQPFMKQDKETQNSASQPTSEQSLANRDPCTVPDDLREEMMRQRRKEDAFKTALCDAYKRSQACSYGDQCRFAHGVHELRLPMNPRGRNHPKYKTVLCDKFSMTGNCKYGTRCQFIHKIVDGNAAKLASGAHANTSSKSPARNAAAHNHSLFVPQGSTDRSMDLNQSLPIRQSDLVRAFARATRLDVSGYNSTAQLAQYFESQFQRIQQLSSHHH
Kind of experiment: disruptors of C. elegans POS-1 RNA interaction – biochemical, fluorescence polarization, dose response (AID 1964).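 Also: purified POS-1 fused to maltose binding protein made in E. coli; potency of compounds blocking POS-1 binding to fluorescent RNA.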

Experiment [10] concerns the target T4, Zinc finger protein mex-5 (Caenorhabditis elegans, UniProt Q9XUB2).
T4 sequence (Q9XUB2 whole entry): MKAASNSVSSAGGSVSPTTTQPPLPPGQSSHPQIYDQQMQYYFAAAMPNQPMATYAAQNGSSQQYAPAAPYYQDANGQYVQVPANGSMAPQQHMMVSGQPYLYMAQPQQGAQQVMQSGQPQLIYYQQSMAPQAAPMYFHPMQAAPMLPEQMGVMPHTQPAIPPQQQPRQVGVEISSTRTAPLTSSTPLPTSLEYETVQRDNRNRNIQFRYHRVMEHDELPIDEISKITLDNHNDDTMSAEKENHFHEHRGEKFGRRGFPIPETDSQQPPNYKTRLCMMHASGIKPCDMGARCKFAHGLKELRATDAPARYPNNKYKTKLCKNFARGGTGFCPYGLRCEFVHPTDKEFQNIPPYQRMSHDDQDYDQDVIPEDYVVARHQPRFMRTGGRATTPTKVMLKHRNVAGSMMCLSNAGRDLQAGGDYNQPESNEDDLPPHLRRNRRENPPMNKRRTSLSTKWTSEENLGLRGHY
Kind of experiment: potency of MEX-5 RNA-binding blockers – biochemical, C. elegans, fluorescence polarization, dose response (AID 1960).

The subject of experiment [11] is BJ. As to the kind of experiment: BJ-TERT fibroblast viability loss – cell-based, RAS-independent, luminescence, dose response (AID 1933). The note with it: Homo sapiens. It counts as functional.
Experiment [12] in a line: blockers of HIV-1 ZM109 envelope-driven cell-cell fusion – HeLa effector, CEM target cells, luciferase, cherry-pick, dose response (AID 652058).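 Also: luciferase signal from HIV-1 Env mediated cell-cell fusion of effector and target cells.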 It is filed as functional, cell-based.
The nature of experiment [13]: HIV-1 AD8 envelope cell-cell fusion blockers – cherry-pick, dose response (AID 652062).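 Also: luciferase signal from cell-cell fusion driven by HIV-1 clade B AD8 Env; potency is for inhibitors of fusion seen as a drop in luminescence.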 It is filed as functional, cell-based.
A short description of experiment [14]: blockers of HIV-1 envelope-mediated cell-cell fusion – cherry-pick, dose response (AID 652057). It is filed as functional, cell-based.
A short description of experiment [15]: P. falciparum Dd2 growth inhibitors, dose response, SYBR Green, cherry-picked samples (AID 1159567). It is filed as functional, cell-based.

T1 sequence (P49327 whole entry): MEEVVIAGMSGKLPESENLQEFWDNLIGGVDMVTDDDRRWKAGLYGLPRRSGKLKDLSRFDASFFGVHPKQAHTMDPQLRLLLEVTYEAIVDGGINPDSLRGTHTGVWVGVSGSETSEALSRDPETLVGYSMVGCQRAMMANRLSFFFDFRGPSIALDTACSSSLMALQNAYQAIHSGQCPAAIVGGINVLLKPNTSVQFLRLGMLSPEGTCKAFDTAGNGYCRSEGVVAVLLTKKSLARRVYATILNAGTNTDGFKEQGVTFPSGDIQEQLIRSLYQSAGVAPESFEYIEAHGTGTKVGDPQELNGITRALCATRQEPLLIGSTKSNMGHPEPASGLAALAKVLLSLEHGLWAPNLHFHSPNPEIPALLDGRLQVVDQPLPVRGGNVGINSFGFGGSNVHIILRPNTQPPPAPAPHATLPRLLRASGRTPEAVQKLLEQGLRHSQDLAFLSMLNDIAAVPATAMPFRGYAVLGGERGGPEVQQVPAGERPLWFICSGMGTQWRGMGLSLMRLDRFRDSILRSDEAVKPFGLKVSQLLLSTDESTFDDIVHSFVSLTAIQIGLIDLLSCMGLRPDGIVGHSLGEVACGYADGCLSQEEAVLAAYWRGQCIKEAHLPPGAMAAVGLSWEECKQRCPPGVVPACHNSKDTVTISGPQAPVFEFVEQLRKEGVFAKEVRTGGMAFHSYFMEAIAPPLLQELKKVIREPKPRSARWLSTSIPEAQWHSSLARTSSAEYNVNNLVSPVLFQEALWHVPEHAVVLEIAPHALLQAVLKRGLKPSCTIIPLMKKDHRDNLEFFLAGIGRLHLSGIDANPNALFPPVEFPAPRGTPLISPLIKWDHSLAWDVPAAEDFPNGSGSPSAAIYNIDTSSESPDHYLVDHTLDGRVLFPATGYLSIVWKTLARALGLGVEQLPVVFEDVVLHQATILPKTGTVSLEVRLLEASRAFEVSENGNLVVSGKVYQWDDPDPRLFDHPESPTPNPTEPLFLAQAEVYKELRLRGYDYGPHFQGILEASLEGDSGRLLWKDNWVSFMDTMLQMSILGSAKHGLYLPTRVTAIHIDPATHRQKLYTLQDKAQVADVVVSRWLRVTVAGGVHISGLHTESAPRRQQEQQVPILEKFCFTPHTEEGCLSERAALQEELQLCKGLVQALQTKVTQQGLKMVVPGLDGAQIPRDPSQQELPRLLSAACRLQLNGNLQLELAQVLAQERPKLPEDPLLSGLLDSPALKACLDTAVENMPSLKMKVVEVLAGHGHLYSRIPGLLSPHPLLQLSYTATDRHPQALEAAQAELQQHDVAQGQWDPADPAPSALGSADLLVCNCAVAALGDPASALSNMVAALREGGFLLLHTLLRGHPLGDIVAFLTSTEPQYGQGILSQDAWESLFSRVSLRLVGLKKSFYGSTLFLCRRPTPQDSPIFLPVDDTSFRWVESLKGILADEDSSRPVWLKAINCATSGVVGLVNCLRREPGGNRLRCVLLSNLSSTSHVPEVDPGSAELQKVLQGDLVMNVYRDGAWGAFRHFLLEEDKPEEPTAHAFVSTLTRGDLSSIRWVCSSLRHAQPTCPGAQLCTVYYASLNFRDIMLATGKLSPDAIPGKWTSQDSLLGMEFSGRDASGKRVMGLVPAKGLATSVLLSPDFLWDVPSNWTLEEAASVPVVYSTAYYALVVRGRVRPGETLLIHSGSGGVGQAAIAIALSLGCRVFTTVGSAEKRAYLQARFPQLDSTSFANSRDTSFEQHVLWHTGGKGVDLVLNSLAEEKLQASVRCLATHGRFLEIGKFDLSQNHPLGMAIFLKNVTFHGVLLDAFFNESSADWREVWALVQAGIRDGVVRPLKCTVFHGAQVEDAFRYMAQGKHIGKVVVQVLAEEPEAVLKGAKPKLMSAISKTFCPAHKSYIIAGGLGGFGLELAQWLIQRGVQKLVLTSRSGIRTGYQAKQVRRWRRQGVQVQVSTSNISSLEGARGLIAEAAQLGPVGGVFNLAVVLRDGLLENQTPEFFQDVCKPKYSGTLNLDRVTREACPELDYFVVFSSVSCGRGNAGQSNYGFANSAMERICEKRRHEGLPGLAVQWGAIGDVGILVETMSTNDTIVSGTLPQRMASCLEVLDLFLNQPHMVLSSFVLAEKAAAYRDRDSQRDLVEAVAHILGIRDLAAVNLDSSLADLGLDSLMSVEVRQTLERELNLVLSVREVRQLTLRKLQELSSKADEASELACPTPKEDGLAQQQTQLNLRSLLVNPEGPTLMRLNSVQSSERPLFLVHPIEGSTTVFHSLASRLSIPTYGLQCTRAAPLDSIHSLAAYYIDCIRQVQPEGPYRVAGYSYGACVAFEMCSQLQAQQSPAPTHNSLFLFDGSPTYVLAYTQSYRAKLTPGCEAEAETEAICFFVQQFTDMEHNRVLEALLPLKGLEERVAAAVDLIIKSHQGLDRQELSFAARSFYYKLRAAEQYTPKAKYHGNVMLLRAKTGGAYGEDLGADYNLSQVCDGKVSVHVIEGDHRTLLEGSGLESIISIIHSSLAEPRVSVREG
Chain of Induced myeloid leukemia cell differentiation protein Mcl-1 (Q07820 whole entry): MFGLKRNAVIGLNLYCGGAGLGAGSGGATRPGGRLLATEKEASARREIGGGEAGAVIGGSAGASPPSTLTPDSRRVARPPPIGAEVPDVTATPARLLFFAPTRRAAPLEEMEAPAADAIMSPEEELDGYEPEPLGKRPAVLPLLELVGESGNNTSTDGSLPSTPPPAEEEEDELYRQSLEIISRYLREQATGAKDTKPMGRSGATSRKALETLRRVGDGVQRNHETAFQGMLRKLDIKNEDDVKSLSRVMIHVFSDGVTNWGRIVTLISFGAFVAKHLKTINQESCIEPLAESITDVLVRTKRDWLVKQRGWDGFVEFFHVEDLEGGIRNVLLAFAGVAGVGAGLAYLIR
Chain of Cytochrome P450 2C9 (P11712 whole entry): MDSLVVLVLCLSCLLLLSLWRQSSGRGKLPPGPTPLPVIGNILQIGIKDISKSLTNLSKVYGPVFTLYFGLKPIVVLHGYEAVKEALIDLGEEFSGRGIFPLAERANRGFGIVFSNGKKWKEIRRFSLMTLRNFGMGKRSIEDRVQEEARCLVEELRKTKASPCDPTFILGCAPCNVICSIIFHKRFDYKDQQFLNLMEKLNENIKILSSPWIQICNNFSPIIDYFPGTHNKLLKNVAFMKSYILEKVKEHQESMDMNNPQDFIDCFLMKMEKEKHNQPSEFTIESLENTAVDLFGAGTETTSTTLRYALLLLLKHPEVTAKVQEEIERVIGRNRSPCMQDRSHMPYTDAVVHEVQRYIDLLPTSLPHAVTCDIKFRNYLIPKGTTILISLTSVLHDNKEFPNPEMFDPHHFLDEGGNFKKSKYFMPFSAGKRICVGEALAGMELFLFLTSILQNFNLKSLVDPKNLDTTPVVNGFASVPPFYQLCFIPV

As for `O=C1CC(=O)c2c1cccc2[N+](=O)[O-]`, the IC50 in [1] is 3.52 µM (active).

As to `Cc1ccc(Cn2c(C)nc3ccc([N+](=O)[O-])cc3c2=O)cc1`, the IC50 on Fatty acid synthase [2] is 5.2 µM (active); at Fatty acid synthase [3], 4.8 µM (active).

Consider `O=C(Nc1ccc(Cl)cc1Cl)C1=Cc2ccccc2OC1`, for which, at Protein skinhead-1, the IC50 is > 100 µM (inactive).

For the molecule `O=C(NCCCCc1ccccc1)C1CC(c2ccccc2[N+](=O)[O-])=NO1` (configuration not stated), the AC50 at Cytochrome P450 2C9 was 31.6 µM (inconclusive); on Cytochrome P450 3A4, 14.1 µM (inconclusive). For the same molecule, in experiment [1], the IC50 is 7.55 µM (not active).

Consider `Cn1c(=O)c(C(=O)COC(=O)c2cc(-c3ccco3)nc3ccccc23)c(N)n(Cc2ccccc2)c1=O`, for which the IC50 in experiment [1] was 2.02 µM (active).

Turning to `O=C(Nc1ccc(N2CCOCC2)cc1)Nc1ccc(Cl)c(Cl)c1`, in [1], the IC50 is 19.5 µM (not active).

Take `Cc1cc(C)c(NC(=O)COC(=O)c2cc([N+](=O)[O-])ccc2N2CCOCC2)c(C)c1`: the IC50 is 10.8 µM (active) on Fatty acid synthase [2] and 6.16 µM (active) on Fatty acid synthase [3].

For the molecule `C[C@@H]1CCCCO[C@H](CN(C)C(=O)Nc2ccc(C(F)(F)F)cc2)[C@@H](C)CN([C@H](C)CO)C(=O)c2cc(NC(=O)Nc3ccc4c(c3)OCO4)ccc2O1`, the AC50 in experiment [4] is 1.68 µM (active).

In the case of `N#Cc1c(N)[nH]c(C(=O)c2ccccc2)c1-c1ccc(Cl)cc1`, the IC50 on Fatty acid synthase [2] is 13.3 µM (active); on Fatty acid synthase [3], 7.39 µM (active).

Take `Cn1cc(/C=N/n2cnc3scc(-c4ccc(Cl)cc4)c3c2=O)c2ccccc21`: the IC50 in [5] is > 80 µM (inactive). Besides, the EC50 was 0.85 µM (active) in experiment [6]; 1.1 µM (active) with BJ [7]; 1.77 µM (active) in the experiment with BJ [8]; > 300 µM (not active) in experiment [9]; > 300 µM (not active) in experiment [10]; 1.07 µM (active) with BJ [11].

On to `O=C(NCc1cccs1)c1csc([C@@H]2O[C@H](CO)[C@H](O)[C@H](O)[C@H]2O)n1`, for which the IC50 on Protein skinhead-1 was > 100 µM (inactive).

In the case of `Cc1ccc(S(=O)(=O)N(C)C[C@@H]2Oc3ccc(NC(=O)C4CCCCC4)cc3CC(=O)N([C@H](C)CO)C[C@@H]2C)cc1`, the results for the AC50 in experiment [12], in [13] and in experiment [14] were 0.574 µM (active), 2.14 µM (active) and < 0.26 µM (active), respectively.

Take `C[C@H]1CN([C@@H](C)CO)C(=O)c2c(c3ccccc3n2C)-c2ccccc2CO[C@H]1CN(C)C(=O)C1CC1`: the AC50 is 0.462 µM (active) in experiment [12], 1.18 µM (active) in experiment [13] and 0.362 µM (active) in experiment [14].

On to `CC(C)C#Cc1ccc([C@@H]2[C@@H](CO)N3C(=O)CN(C(=O)C4CCCCC4)C[C@@H]23)cc1`, for which the half-maximal activity concentration (AC50) in [15] is 7.36 µM (active).

For `COc1ccccc1CNC(=O)C[C@H]1C[C@@H]2c3cc(NC(=O)Nc4ccc(C(F)(F)F)cc4)ccc3O[C@@H]2[C@H](CO)O1`, the concentration at half-maximal activity (AC50) in experiment [15] is 6.78 µM (active).

On to `CCS(=O)(=O)N1CCC2(CC1)CN(Cc1ccc3c(c1)OCO3)[C@@H](CO)c1[nH]c3cc(OC)ccc3c12`, for which the half-maximal activity concentration (AC50) in experiment [15] was 8.27 µM (active).

Turning to `c1ccc(OCc2nc3ccccc3s2)cc1` [2-(PHENOXYMETHYL)BENZOTHIAZOLE], the 50% inhibitory concentration (IC50) at Protein skinhead-1 was 29.5 µM (active).
